Assays:
Type in all cases: functional
[1] = test system: Rattus norvegicus; experiment: The compound was examined for cell accumulation in the rat by Arthus reaction after peroral administration at 25 mg/Kg, activity expressed as percent inhibition.; conditions: po
[2] = test system: Rattus norvegicus; experiment: The compound was examined for cell accumulation in the rat by polyvinyl sponge model after peroral administration at 25 mg/Kg, activity expressed as percent inhibition.; conditions: po
[3] = test system: Rattus norvegicus; experiment: The compound was examined for cell accumulation in the rat by Arthus reaction after peroral administration at 12.5mg/Kg, activity expressed as percent inhibition.; conditions: po
[4] = test system: Rattus norvegicus; experiment: Antiarthritic activity against rat adjuvant model after peroral administration of 25 mg/Kg of compound, activity expressed as %maximum inhibitory effect on injected paw depth
[5] = test system: Rattus norvegicus; experiment: Antiarthritic activity against rat adjuvant model after peroral administration of 25 mg/Kg of compound, activity expressed as %maximum inhibitory effect on arthritis score.
[6] = test system: Rattus norvegicus; experiment: The compound was examined for cell accumulation in the rat by pleural exudate model after peroral administration at 12 mg/Kg, activity expressed as percent inhibition.; conditions: po
[7] = test system: Rattus norvegicus; experiment: The compound was examined for cell accumulation in the rat by polyvinyl sponge model after peroral administration at 10 mg/Kg, activity expressed as percent inhibition.; conditions: po
[8] = test system: Rattus norvegicus; experiment: The compound was examined for cell accumulation in the rat by Arthus reaction after peroral administration at 50 mg/Kg, activity expressed as percent inhibition.; conditions: po
[9] = test system: Rattus norvegicus; experiment: Antiarthritic activity against rat adjuvant model after peroral administration of 12.5 mg/Kg of compound, activity expressed as %maximum inhibitory effect on arthritis score.
[10] = test system: Rattus norvegicus; experiment: Antiarthritic activity against rat adjuvant model after peroral administration of 12.5 mg/Kg of compound, activity expressed as %maximum inhibitory effect on injected paw depth
[11] = test system: Rattus norvegicus; experiment: The compound was examined for cell accumulation in the rat by pleural exudate model after peroral administration at 6 mg/Kg, activity expressed as percent inhibition.; conditions: po
[12] = test system: Rattus norvegicus; experiment: The compound was examined for cell accumulation in the rat by pleural exudate model after peroral administration at 12.5 mg/Kg, activity expressed as percent inhibition.; conditions: po
[13] = test system: Rattus norvegicus; experiment: The compound was examined for cell accumulation in the rat by pleural exudate model after peroral administration at 25 mg/Kg, activity expressed as percent inhibition.; conditions: po
[14] = test system: Rattus norvegicus; experiment: Antiarthritic activity against rat adjuvant model after peroral administration of 12.5 mg/Kg of compound: activity expressed as %maximum inhibitory effect on arthritis score.
[15] = test system: Rattus norvegicus; experiment: Antiarthritic activity against rat adjuvant model after peroral administration of 25 mg/Kg of compound: activity expressed as %maximum inhibitory effect on arthritis score.
[16] = test system: Rattus norvegicus; experiment: The compound was examined for cell accumulation in the rat by polyvinyl sponge model after peroral administration at 12.5 mg/Kg, activity expressed as percent inhibition.; conditions: po
[17] = test system: Rattus norvegicus; experiment: Antiarthritic activity against rat adjuvant model after peroral administration of 5 mg/Kg of compound, activity expressed as %maximum inhibitory effect on arthritis score.
[18] = test system: Rattus norvegicus; experiment: The compound was examined for cell accumulation in the rat by pleural exudate model after oral administration at 25 mg/Kg, activity expressed as percent inhibition.
[19] = test system: Rattus norvegicus; experiment: Antiarthritic activity against rat adjuvant model after peroral administration of 5 mg/Kg of compound, activity expressed as %maximum inhibitory effect on injected paw depth
[20] = test system: Rattus norvegicus; experiment: Antiarthritic activity against rat adjuvant model after peroral administration of 10 mg/Kg of compound, activity expressed as %maximum inhibitory effect on arthritis score.
[21] = test system: Rattus norvegicus; experiment: The compound was examined for cell accumulation in the rat by pleural exudate model after peroral administration at 3 mg/Kg, activity expressed as percent inhibition.; conditions: po
[22] = test system: Rattus norvegicus; experiment: Antiarthritic activity against rat adjuvant model after peroral administration of 10 mg/Kg of compound, activity expressed as %maximum inhibitory effect on injected paw depth
[23] = test system: Rattus norvegicus; experiment: The compound was examined for cell accumulation in the rat by Arthus reaction after peroral administration at 12.5 mg/Kg, activity expressed as percent inhibition.; conditions: po
[24] = test system: Rattus norvegicus; experiment: The compound was examined for cell accumulation in the rat by polyvinyl sponge model after peroral administration at 5 mg/Kg, activity expressed as percent inhibition.; conditions: po
[25] = test system: Rattus norvegicus; experiment: The compound was examined for cell accumulation in the rat by Arthus reaction after peroral administration at 6.25 mg/Kg, activity expressed as percent inhibition.; conditions: po
[26] = test system: Rattus norvegicus; experiment: Antiarthritic activity against rat adjuvant model after peroral administration of 6 mg/kg of compound, activity expressed as %maximum inhibitory effect on injected paw depth; conditions: route oral
[27] = test system: Rattus norvegicus; experiment: Antiarthritic activity against rat adjuvant model after peroral administration of 6 mg/Kg of compound, activity expressed as %maximum inhibitory effect on arthritis score.
[28] = test system: Rattus norvegicus; experiment: Antiarthritic activity against rat adjuvant model after intravenous administration of 25 mg/Kg of compound, activity expressed as %maximum inhibitory effect on injected paw depth
[29] = test system: Rattus norvegicus; experiment: Antiarthritic activity against rat adjuvant model after intravenous administration of 50 mg/Kg of compound, activity expressed as %maximum inhibitory effect on arthritis score.
[30] = test system: Rattus norvegicus; experiment: Antiarthritic activity against rat adjuvant model after peroral administration of 50 mg/Kg of compound, activity expressed as %maximum inhibitory effect on injected paw depth
[31] = test system: Rattus norvegicus; experiment: Antiarthritic activity against rat adjuvant model after intravenous administration of 25 mg/Kg of compound, activity expressed as %maximum inhibitory effect on arthritis score.

CN(C)C1=NC(c2ccccc2F)c2ccccc2C1.Cl (stereo not drawn)
inhibition in vivo at 25 mg/kg [1]: 44% | inhibition in vivo at 25 mg/kg [2]: 24% | inhibition in vivo at 12.5 mg/kg [3]: 28% | Max inhibitory effect [4]: 13% | Max inhibitory effect [5]: 37% | inhibition in vivo at 12 mg/kg [6]: 33% | inhibition in vivo at 10 mg/kg [7]: 12% | inhibition in vivo at 50 mg/kg [8]: 55%

Cl.Clc1ccc(C2N=C(N3CCOCC3)Cc3ccccc32)cc1 (stereo not drawn)
Max inhibitory effect [4]: 7% | Max inhibitory effect [5]: 5%

Cl.NC1=NC(c2ccc(Cl)cc2)c2ccccc2C1 (stereo not drawn)
Max inhibitory effect [4]: 0% | Max inhibitory effect [5]: -3%

CN(C)C1=NC(c2ccc([N+](=O)[O-])cc2)c2ccccc2C1.Cl (stereo not drawn)
Max inhibitory effect [9]: 30% | Max inhibitory effect [10]: 33%

CN(C)C1=NC(c2ccccc2Cl)c2ccccc2C1.Cl (stereo not drawn)
inhibition in vivo at 6 mg/kg [11]: 27% | inhibition in vivo at 12.5 mg/kg [12]: 28% | inhibition in vivo at 25 mg/kg [1]: 19% | inhibition in vivo at 25 mg/kg [2]: 19% | Max inhibitory effect [4]: 30% | inhibition in vivo at 25 mg/kg [13]: 48% | Max inhibitory effect [14]: 10% | Max inhibitory effect [15]: 36% | inhibition in vivo at 50 mg/kg [8]: 34% | Max inhibitory effect [10]: 12%

CN(C)C1=NC(c2ccccc2)c2ccccc2C1.Cl (stereo not drawn)
Max inhibitory effect [4]: -6% | Max inhibitory effect [5]: 13%

CN(C)C1=NC(c2ccc(Cl)cc2)c2ccccc2C1.Cl (stereo not drawn)
inhibition in vivo at 6 mg/kg [11]: 19% | inhibition in vivo at 12.5 mg/kg [16]: 15% | inhibition in vivo at 12.5 mg/kg [12]: 21% | Max inhibitory effect [17]: 18% | inhibition in vivo at 25 mg/kg [2]: 30% | inhibition in vivo at 25 mg/kg [18]: 28% | Max inhibitory effect [9]: 44% | Max inhibitory effect [19]: 30% | Max inhibitory effect [10]: 80%

CN(C)C1=NC(c2cccc(Cl)c2)c2ccccc2C1.Cl (stereo not drawn)
inhibition in vivo at 6 mg/kg [11]: 41% | inhibition in vivo at 12.5 mg/kg [12]: 41% | Max inhibitory effect [20]: 29% | inhibition in vivo at 25 mg/kg [1]: 29% | inhibition in vivo at 3 mg/kg [21]: 36% | Max inhibitory effect [4]: 84% | Max inhibitory effect [5]: 53% | Max inhibitory effect [22]: 32% | inhibition in vivo at 12.5 mg/kg [23]: 30% | inhibition in vivo at 10 mg/kg [7]: 35% | inhibition in vivo at 5 mg/kg [24]: 8% | inhibition in vivo at 6.25 mg/kg [25]: 31% | inhibition in vivo at 50 mg/kg [8]: 42%

Cl.Clc1ccc(C2N=C(NCc3ccccc3)Cc3ccccc32)cc1 (stereo not drawn)
Max inhibitory effect [4]: 10% | Max inhibitory effect [5]: -7%

CN(C)C1=NC(c2ccc(Cl)cc2)c2cc(Cl)ccc2C1.Cl (stereo not drawn)
Max inhibitory effect [26]: 36% | Max inhibitory effect [4]: 86% | Max inhibitory effect [27]: 34% | Max inhibitory effect [5]: 54%

COc1ccc2c(c1)CC(N(C)C)=NC2c1ccc(Cl)cc1.Cl (stereo not drawn)
Max inhibitory effect [4]: 0% | Max inhibitory effect [5]: 11%

CN(C)C1=NC(c2ccc(N)cc2)c2ccccc2C1.Cl (stereo not drawn)
Max inhibitory effect [4]: 6% | Max inhibitory effect [5]: 9%

CN(C)C1=NC(c2ccc(Cl)cc2Cl)c2ccccc2C1.Cl (stereo not drawn)
Max inhibitory effect [9]: 15% | Max inhibitory effect [10]: 44%

Br.CN(C)C1=NC(c2ccc(Cl)cc2)c2ccc(O)cc2C1 (stereo not drawn)
Max inhibitory effect [28]: 46% | Max inhibitory effect [29]: 16% | Max inhibitory effect [30]: 5% | inhibition in vivo at 25 mg/kg [13]: 21% | Max inhibitory effect [31]: 44% | inhibition in vivo at 50 mg/kg [8]: 18%

CN(C)C1=NC(c2ccc(Cl)cc2)c2ccccc2C1 (stereo not drawn)
Max inhibitory effect [4]: -1% | Max inhibitory effect [5]: 29%
